Data taken from US11731956B2, “Substituted 1,2,4-triazoles as intermediates in the synthesis of TYK2 inhibitors” (Alumis Inc., priority 2018, dated 2023).

How the values were obtained:
[1] = Pharmacokinetic study in C57BL/6 mice; format: in vivo, male C57BL/6 mice
Procedure: (§1) The pharmacokinctics of test compounds were evaluated in male C57BL/6 mice, Sprague Dawley rats, Beagle dogs, and cynomolgus monkeys when administered via oral gavage and IV injection. The animals were fasted overnight before administration. Plasma samples were collected predose and at 0.5, 1, 3, 6, 9, 12, and 24 hours postdose. The samples were analyzed by LC/MS/MS and the concentration of test compound at each timepoint was determined by linear regression. Pharmacokinetic parameters were calculated from the plasma concentrations using Pheonix WinNonlin.

[2] = Pharmacokinetic study in Sprague Dawley rats; format: in vivo; settings: rat, plasma
Procedure: as §1

[3] = Pharmacokinetic study in Beagle dogs; format: in vivo; settings: dog, plasma
Procedure: as §1

[4] = Pharmacokinetic study in cynomolgus monkeys; format: in vivo
Procedure: as §1

[5] = male, mouse, plasma, Oral (10 mg/kg)
[6] = male, mouse, plasma, iv, I.V. (2 mg/kg)
[7] = Oral (2 mg/kg), NA: no detectable
[8] = cynomolgus monkey, plasma, iv, I.V. (1 mg/kg)
[9] = iv, I.V. (1 mg/kg), read-out: Vdss
[10] = cynomolgus monkey, plasma, Oral (2 mg/kg), NA: no detectable

## [2H]C([2H])([2H])CC(=O)c1cnc(NC(=O)C2CC2)cc1Nc1cccc(-c2ncn(C([2H])([2H])[2H])n2)c1OC [Example 195]
[1]; I.V. (2 mg/kg)
  CL: 4.16 mL · kg − 1 · min − 1
  Vdss: 0.688 L/kg
[1]; Oral (10 mg/kg)
  Cmax: 4295 ng/mL
  F %: 41.7%
  Tmax: 0.500 h
[1]; [5]
  AUC: 16700 ng·h/mL
[1]; [6]
  AUC: 7990 ng·h/mL
  C0: 2950 ng/mL
[2]; iv, I.V. (1 mg/kg)
  C0: 2150 ± 123 ng/mL
[3]; iv, I.V. (1 mg/kg)
  C0: 185 ± 8.4 ng/mL
[4]; [7]
  Cmax: 663 ± 497 ng/mL
  F %: 16.6 ± 9.95%
  Tmax: 4.0 ± 0 h
[4]; [8]
  C0: 1290 ± 106 ng/mL

## [2H]C([2H])([2H])CC(=O)c1cnc(Nc2cccc(C#N)n2)cc1Nc1cccc(-c2ncn(C([2H])([2H])[2H])n2)c1OC [Example 198]
[2]; iv, I.V. (1 mg/kg)
  C0: 1200 ± 70 ng/mL
[3]; iv, I.V. (1 mg/kg)
  C0: 182 ± 47.6 ng/mL
[4]; [7]
  Cmax: 246 ± 124 ng/mL
  F %: 59.4 ± 21.1%
  Tmax: 4 ± 0 h
[4]; [8]
  C0: 667 ± 82 ng/mL

## [2H]C([2H])([2H])CC(=O)c1cnc(Nc2cccc(C#N)n2)cc1Nc1nccc(-c2ncn(C([2H])([2H])[2H])n2)c1OC [Example 199]
[2]; iv, I.V. (1 mg/kg)
  C0: 414 ± 56 ng/mL
[3]; iv, I.V. (1 mg/kg)
  C0: 334 ± 96 ng/mL

## [2H]C([2H])([2H])CC(=O)c1cnc(NC(=O)C2CC2)cc1Nc1nccc(-c2ncn(C([2H])([2H])[2H])n2)c1OC [Example 200]
[1]; I.V. (2 mg/kg)
  CL: 7.35 mL · kg − 1 · min − 1
  Vdss: 1.5 L/kg
[1]; Oral (10 mg/kg)
  Cmax: 4193 ng/mL
  F %: 85.1%
  Tmax: 0.250 h
[1]; [5]
  AUC: 19300 ng·h/mL
[1]; [6]
  AUC: 4480 ng·h/mL
  C0: 2390 ng/mL
[2]; iv, I.V. (1 mg/kg)
  C0: 1030 ± 47 ng/mL
[3]; iv, I.V. (0.5 mg/kg)
  C0: 29.7 ± 14 ng/mL
  clearance: 8.17 ± 2.6 mL/min/kg
[4]; [7]
  Cmax: 384 ± 22 ng/mL
  F %: 27.7 ± 1.7%
  Tmax: 2.0 ± 0 h
[4]; [8]
  C0: 677 ± 81 ng/mL

## [2H]C([2H])([2H])CC(=O)c1cnc(Nc2ccc(C(C)(C)O)c(F)n2)cc1Nc1nccc(-c2ncn(C([2H])([2H])[2H])n2)c1OC [Example 201]
[2]; iv, I.V. (1 mg/kg)
  C0: 1190 ± 116 ng/mL
[3]; iv, I.V. (1 mg/kg)
  C0: 458 ± 336 ng/mL
[4]; [7]
  Cmax: 13.9 ± 2 ng/mL
  F %: 4.67 ± 1.5%
  Tmax: 2.33 ± 1.5 h
[4]; [8]
  C0: 849 ± 50 ng/mL

## [2H]C([2H])([2H])CC(=O)c1cnc(Nc2ccc(C(C)(C)O)c(F)n2)cc1Nc1cccc(-c2ncn(C([2H])([2H])[2H])n2)c1OC [Example 202]
[1]; I.V. (2 mg/kg)
  CL: 17.3 mL · kg − 1 · min − 1
  Vdss: 0.785 L/kg
[1]; Oral (10 mg/kg)
  Cmax: 1899 ng/mL
  F %: 66.6%
  Tmax: 0.500 h
[1]; [5]
  AUC: 6400 ng·h/mL
[1]; [6]
  AUC: 1910 ng·h/mL
  C0: 3340 ng/mL
[2]; iv, I.V. (1 mg/kg)
  C0: 1980 ± 101 ng/mL
[3]; iv, I.V. (1 mg/kg)
  C0: 469 ± 255 ng/mL

## [2H]C([2H])([2H])CC(=O)c1cnc(Nc2ccc(C(O)(C([2H])([2H])[2H])C([2H])([2H])[2H])c(F)n2)cc1Nc1ncccc1S(C)(=O)=O [Example 203]
[4]; [8]
  C0: 787 ± 61 ng/mL

## [2H]C([2H])([2H])NC(=O)c1nnc(NC(=O)C2CC2)cc1Nc1cccc(-c2ncn(C)n2)c1OC [control, BMS-986165, reference compound]
[1]; [5]
  AUC: 8870 ng·h/mL
  bioavailability: 86.7%
  half-life: 2.96 h
[1]; male, mouse, plasma, Oral (10 mg/kg), read-out: Cmax
  Cmax: 4700 ng/mL
[1]; male, mouse, plasma, Oral (10 mg/kg), read-out: Tmax
  Tmax: 0.25 h
[1]; [6]
  AUC: 2040 ng·h/mL
  C0: 3220 ng/mL
  clearance: 15.6 mL/min/kg
  half-life: 2.19 h
[1]; male, mouse, plasma, iv, I.V. (2 mg/kg), read-out: Vdss
  Vd: 1.56 L/kg
[2]; Oral (5 mg/kg)
  AUC: 3200 ± 600 ng·h/mL
  Cmax: 792 ± 260 ng/mL
  Tmax: 1 ± 0.87 h
  bioavailability: 32.6 ± 5.4%
  half-life: 2.93 ± 1.2 h
[2]; iv, I.V. (1 mg/kg)
  AUC: 1970 ± 166 ng·h/mL
  C0: 1740 ± 276 ng/mL
  clearance: 8.41 ± 0.7 mL/min/kg
  half-life: 2.42 ± 1.7 h
[2]; [9]
  Vd: 0.933 ± 0.12 L/kg
[3]; Oral (2 mg/kg)
  AUC: 1310 ± 579 ng·h/mL
  Cmax: 222 ± 46 ng/mL
  Tmax: 1.67 ± 0.58 h
  bioavailability: 35.5 ± 15%
  half-life: 6.21 ± 2.9 h
[3]; iv, I.V. (1 mg/kg)
  AUC: 1900 ± 349 ng·h/mL
  C0: 559 ± 34 ng/mL
  clearance: 8.85 ± 1.7 mL/min/kg
  half-life: 4.43 ± 0.87 h
[3]; [9]
  Vd: 2.27 ± 0.23 L/kg
[4]; [10]
  AUC: 3190 ± 1630 ng·h/mL
  bioavailability: 27.8 ± 14%
  half-life: 10.6 ± 3.8 h
[4]; cynomolgus monkey, plasma, Oral (2 mg/kg), NA: no detectable, read-out: Cmax
  Cmax: 247 ± 136 ng/mL
[4]; cynomolgus monkey, plasma, Oral (2 mg/kg), NA: no detectable, read-out: Tmax
  Tmax: 5.33 ± 1.2 h
[4]; [8]
  AUC: 5740 ± 1170 ng·h/mL
  C0: 1420 ± 264 ng/mL
  clearance: 2.79 ± 0.74 mL/min/kg
  half-life: 7.54 ± 1.6 h
[4]; cynomolgus monkey, plasma, iv, I.V. (1 mg/kg), read-out: Vdss
  Vd: 1.2 ± 0.042 L/kg
